As usually defined, the IC50 is the point on the concentration scale where inhibition reaches its midpoint.

We go through four molecules from article PMC6208296, “Redox regulation of pyruvate kinase M2 by cysteine oxidation and S-nitrosation” (Biochemical Journal, 2018).

Read-outs that look alike come from different tables or passages of the source.

What all share (assay type): biochemical
The target in test [1] is T1, M2PYK (Homo sapiens, UniProt P14618).
T1 construct: gene PKM; recombinant His-tagged WT M2 isoform
T1 sequence (P14618 2-531): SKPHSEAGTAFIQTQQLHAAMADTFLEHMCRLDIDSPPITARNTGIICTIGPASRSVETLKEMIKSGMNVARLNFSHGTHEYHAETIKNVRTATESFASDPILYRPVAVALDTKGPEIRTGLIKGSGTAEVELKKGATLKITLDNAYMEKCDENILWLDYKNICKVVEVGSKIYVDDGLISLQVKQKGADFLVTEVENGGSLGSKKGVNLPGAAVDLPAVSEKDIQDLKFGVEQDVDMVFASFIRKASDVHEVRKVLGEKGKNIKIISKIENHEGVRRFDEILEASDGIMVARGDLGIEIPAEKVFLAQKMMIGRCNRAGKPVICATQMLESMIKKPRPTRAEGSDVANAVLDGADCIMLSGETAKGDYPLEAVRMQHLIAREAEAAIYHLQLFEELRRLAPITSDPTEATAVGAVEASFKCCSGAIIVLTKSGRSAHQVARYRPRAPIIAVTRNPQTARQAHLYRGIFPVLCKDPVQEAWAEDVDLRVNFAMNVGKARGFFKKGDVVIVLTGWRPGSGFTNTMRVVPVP
Put plainly: LDH-coupled enzyme assay with and without F-1,6-BP; protection from S-nitrosation (biotin switch).

Test [2] deals with T1, M2PYK. Put plainly: PYK enzyme activity assay, dose response with and without DTT and Ser.
Test [3] has as its target T1, M2PYK. Nature of the test: enzyme activity assay, competition of activator Ser with inhibitors Ala and Phe.

As for `O=P(O)(O)OC[C@H]1OC(O)(COP(=O)(O)O)[C@@H](O)[C@@H]1O` (stereo partly shown) [fructose 1,6-bisphosphate], the “LDH-coupled enzyme assay with and without F-1,6-BP; protection from S-nitrosatio” value on M2PYK [1] was “M2PYK complexes with FBP and Phe stabilise M2PYK in a tetrameric state and reduce the amount of nitrosation”. `C[C@H](N)C(=O)O` [L-alanine]: the IC50 at M2PYK [2] (read-out: IC50) worked out at 45 µM. The molecule `N[C@@H](Cc1ccccc1)C(=O)O` [L-phenylalanine] came in with an IC50 at M2PYK [2] of 57 µM. As to `N[C@@H](CO)C(=O)O` [Ser], the “enzyme activity assay, competition of activator Ser with inhibitors Ala and Phe” value at M2PYK [3] is “Increasing Ser concentration further reduces the inhibitory effect of Ala which is expected as Ala and Ser compete”.
